Measurements as given in PubChem BioAssay AID1117319 (Southern Research Institute, 2015).
Records with an inconclusive call do not appear.

Molecular target: Virion infectivity factor (Human immunodeficiency virus type 1 group M subtype B (isolate BH10)) + Virion infectivity factor (Human immunodeficiency virus type 1 group M subtype B (isolate BRU/LAI)) + Virion infectivity factor (Human immunodeficiency virus type 1 group M subtype B (isolate PCV12)) + Virion infectivity factor (Human immunodeficiency virus type 1 group M subtype B (isolate HXB2)) + DNA dC->dU-editing enzyme APOBEC-3G (Homo sapiens) (UniProt P69720+P69721+P69722+P69723+Q9HC16)
Assay: HIV-1 Vif–A3G interaction blockers – biochemical, TR-FRET, GST-Vif 1-94, biotin-A3G peptide, dose response retest, primary screen (AID 1117319);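 note: Vif residues 1-94 fused to GST binding biotinylated APOBEC3G peptide 110-148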
Details: TR-FRET GST-Vif / biotin-A3G peptide binding

Compound	IC50 [µM]
Cc1ncc(CO)c(/C=N/NC(=O)c2cc(O)c(O)c(O)c2)c1O	2.45
C=CCn1c(O)c(C(CC)=Nc2ccc(N(C)C)cc2)c(=O)[nH]c1=O	57.6
Cc1ccc([C@@H]2C3COCC=C3C(C#N)=C(N)C2(C#N)C#N)o1 (stereo not given in full)	10.3
c1ccc(CSc2nnc(-c3ccco3)c(-c3ccco3)n2)cc1	6.93
CCN1CCC(=NNC(=O)CC23CC4CC(CC(C4)C2)C3)CC1	97.5
COc1ccc(N2CCN(C(=O)c3ccc(C)c(Cl)c3)CC2)cc1	42.2
Cc1nc2c(=O)[nH]c(=S)[nH]c2[nH]c1=O	50.7
Cc1cc(Cl)cc2c1NC(=O)[C@]21[C@@H]2C(=O)N(Cc3ccccc3)C(=O)[C@@H]2[C@@H]2CCCN21	38
Brc1c(CSc2nnc(-c3ccco3)o2)nc2ccccn12	30.6
C=CCn1c(C)cc(-c2csc(N)n2)c1C	1.23
CCOC(=O)c1nn(-c2ccc(Cl)cc2Cl)c(=N)c(C#N)c1C	12.7
CCc1ccc(NC(=O)CCNS(=O)(=O)c2cccc3nonc23)cc1	53
CCOC(=O)C1=C(Cc2ccc(Cl)cc2)C(=O)c2ccccc2C1=O	34.7
CCN1CCN(c2cc(N3CCN(C(=O)c4ccco4)CC3)c3c4c(onc24)-c2ccccc2C3=O)CC1	3.06
O=C(CSc1nc(-c2ccco2)cc(C(F)(F)F)n1)N1CCc2ccccc2C1	22.8
Cc1cc(C)c(C(=O)/C=C/c2ccco2)c(=O)[nH]1	8.81
CCC(=O)OCCNc1cc(Sc2nc3ccccc3[nH]2)c2nonc2c1[N+](=O)[O-]	9.48
CC1(C)CC2(CC(c3ccccc3F)c3ccc(O)c(O)c3O2)NC(=S)N1 (stereo not given)	13.7
COc1cc(OC)c2c(O)c3c(c(-c4c5c(c(O)c6c(OC)cc(OC)cc46)CO[C@@H](C)[C@H]5O)c2c1)[C@H](O)[C@H](C)OC3	4.61
O=C1C(Cl)=C(Nc2ccc3cn[nH]c3c2)C(=O)c2ccccc21	3.58
CCOC(=O)c1cnn2c(N)c(C#N)nnc12	21.4
Oc1c(CN2CCOCC2)cc(CN2CCOCC2)c(O)c1O	9.18
Cc1cccc(N(C(=O)Cn2nnc3ccccc32)C(C(=O)NCc2ccco2)c2ccncc2)c1C (stereo not given)	4.66
CN(C)c1ccc(NC(=O)CSc2nc3ccccc3c(=O)n2C2CCCCC2)cc1	21.7
C/C(=N\Nc1ccc(Cl)c(C(=O)O)c1)c1ccc[nH]1	8.87
O=C1c2sc3nc4n(c(=O)c3c2CCC1Br)CCCCC4 (stereo not given)	0.54
COC(=O)C1=COC(C)C2CN3CCc4c([nH]c5ccccc45)C3CC12 (stereo not given)	17.9

Compound	IC50 [µM]
O=C1NC(=O)N(c2ccc(Cl)cc2)C(=O)/C1=C\c1ccc(Sc2nc3ccccc3[nH]2)o1	11.7
O=C1NC(c2ccc(Br)cc2)=N/C1=C/c1ccco1	7.41
C=CC(=O)N1C/C(=C/c2ccc(F)cc2)C(=O)/C(=C\c2ccc(F)cc2)C1	7.41
Cc1nc2cc(N=NC3=C(O)CCCC3=O)ccc2s1	1.28
O=C(O)Cn1cc(/C=C2\C(=O)NC(=O)N(Cc3ccco3)C2=O)c2ccccc21	14.7
CCc1ccc(NC(=O)N(CCN2CCOCC2)Cc2ccc3c(c2)CCCN3CC)cc1	88.1
CCOC(=O)C1=C(C)NC(C)=C(C(=O)OCC)C1c1cn(-c2ccccc2)nc1-c1ccco1	31.1
O=C1NC(=O)C(=Cc2ccco2)C(=O)N1	19.9
CN=c1scc(-c2ccco2)n1/N=C/c1ccc(O)c(O)c1	9.26
COC(=O)c1ccccc1NC(=O)CCS(=O)(=O)c1ccc(Br)cc1	1.49
O=C(NCc1ccc2c(c1)OCO2)c1cc2ncc(Br)cn2n1	33.7
CNc1ccc(Br)cc(C(=O)/C=C/c2ccc3c(c2)OCO3)c1=O	21.9
COC/C=C/C1=CC2=CC(=O)C(C)(OC(=O)c3ccco3)C(=O)C2=CO1 (stereo not given)	1.52
CCc1cc2cc(C)cc(C)c2nc1SCC(=O)N1CCN(C(=O)c2ccco2)CC1	12.6
Cc1nc2ccc(NC(=O)Cc3cccs3)cc2s1	84
CCN(CC)C(=O)c1ccc2c(c1)C1C=CCC1C(C(=O)O)N2 (stereo not given)	2.81
COC(=O)CCC(=O)OC1(C)C(=O)C2=CN(CCCOC(C)C)C(c3ccc(OC)cc3)=CC2=C(Br)C1=O (stereo not given)	11.5
CC(C)(CS(=O)(=O)[O-])NC(=O)CC[N+](C)(C)CCO	1.5
COc1ccccc1-n1c(-c2cc(-c3ccco3)[nH]n2)n[nH]c1=S	3.11
Oc1ccc(/C=N/NC2=NCCCCC2)c(O)c1	4.9
CCOC(=O)C(C)N1C(=O)S/C(=C\c2ccc(-c3ccccc3C(=O)O)o2)C1=O (stereo not given)	10.8
Nc1cc(N)c(OCC(F)(F)F)cc1OCC(F)(F)F	9.47
CC1=CC(=Nc2c(C)n(C)n(-c3ccccc3)c2=O)C=CC1=O	5.02
CN(CC(=O)Nc1c(Cl)cccc1Cl)C(=O)c1cccc(-n2cccc2)c1	31.3
Cc1ccc(/C=C2\SC(=S)N(c3cccnc3)C2=O)o1	6.87
COc1ccc(OC)c(NC(=O)NCc2ccc(F)cc2)c1	58.5
Cc1ccc(C)n1-c1ccc(C(=O)O)cc1	5.12

Compound	IC50 [µM]
CCn1cc(CNC(=O)c2ccc(Cl)c([N+](=O)[O-])c2)c(C)n1	15.7
CC(C)CNC1=CC(=O)CC(c2ccco2)C1 (stereo not given)	3.75
Cc1ccc(C)n1-c1sccc1C(=O)O	1.92
O=C1c2cccnc2C(Nc2ccccc2)N1Cc1ccco1 (stereo not given)	22.9
O=C(NCCc1ccccc1)c1ccc2nc(-c3ccco3)c(-c3ccco3)nc2c1	3.01
Cc1noc(C)c1S(=O)(=O)Nc1ccc2c(c1)C(=O)N([C@@H](C)CO)C[C@H](C)[C@@H](CN(C)Cc1ccc(C(F)(F)F)cc1)OCCCC[C@H](C)O2	96
O=C(CN1C(=O)NC2(CCCCCCC2)C1=O)NCc1ccc2c(c1)OCO2	99.2
O=C1CC(c2ccco2)CC(O)=C1C=NCC1CCNCC1 (stereo not given)	13.5
Cc1cc(C(=O)CSc2nnc(-c3ccco3)o2)c(C)n1Cc1ccco1	1.97
CN1C(=O)/C(=C/c2cccn2-c2ccc3ccccc3c2)C(=O)NC1=S	< 8.17
O=C(NCc1ccccc1Cl)c1csc2c1CCCCC2	8.35
COc1ccc(C2=NOC(C(=O)NCc3cccs3)C2)cc1OC (stereo not given)	89.8
COc1cc(/C=C/C=C2/CC/C(=C/C=C/c3ccc(O)c(OC)c3)C2=O)ccc1O	4.03
COc1ccc(NS(=O)(=O)c2cccc(Cl)c2Cl)cc1S(=O)(=O)N1CCCCC1	76.1
COc1ccc(C2CC(=O)N3CN(c4ccc(C)c(Cl)c4)CSC3=C2C#N)cc1 (stereo not given)	81.2
O=C(O)c1ccc2c(c1)C1C=CCC1C(c1ccncc1)N2 (stereo not given)	3.85
O=C(O)c1ccc(Cl)c2c1C1C=CCC1C(c1ccccn1)N2 (stereo not given)	0.82
CCOC(=O)C1CCCN(C(=O)c2ccc(CNc3c(N4CCC(C)CC4)c(=O)c3=O)cc2)C1 (stereo not given)	31.4
O=C(Nc1ccc(Cl)c(-c2nc3ccccc3[nH]2)c1)c1cccnc1	79.7
O=c1cc(CO)oc(C(Nc2ccccn2)c2ccc(F)cc2)c1O (stereo not given)	85.7
Cc1cccc(N2C(=O)/C(=C/c3ccc(CN(CCC#N)S(C)(=O)=O)o3)C(=O)NC2=S)c1	22.9
CCOC(=O)c1cc2cc(F)ccc2nc1C	1.65
CN1CCc2cccc3c2[C@H]1Cc1ccc(O)c(O)c1-3	0.89
Cc1cccc2cc(-c3ccccc3)c(-c3ccccc3)c[n+]12	6.83
C=C(C)C(=O)Nc1cccc(C2=NOC3(C2)C[C@H](C(N)=O)N(C(=O)C(c2ccccc2)c2ccccc2)C3)c1 (stereo not given in full)	2.41
O=C(NCc1ccco1)c1cc(-c2cccc(Cl)c2)on1	36.9
COc1ccccc1N1C(=O)NC(=O)/C(=C/c2ccc([N+](=O)[O-])s2)C1=O	6.9

Compound	IC50 [µM]
O=C1CCC/C(=N\NC(=O)c2ccc(COc3cccc4cccnc34)cc2)C1	17.1
O=C1OC(c2ccc(F)cc2)=C/C1=C\c1ccc([N+](=O)[O-])o1	8.61
CCOC(=O)CSc1nc2c(sc(=S)n2-c2ccccc2OC)c(=O)n1Cc1ccco1	27.2
O=C(NCCN1CCN(c2ccccc2)CC1)C1CCN(S(=O)(=O)c2cccc3nonc23)CC1	43
CC(=O)c1ccc2c(c1)C1C=CCC1C(C(=O)O)N2 (stereo not given)	0.6
CCOc1ccccc1C(O)C1=CC(=O)c2ccccc2C1=O (stereo not given)	7.61
N#C/C(C(N)=O)=c1/ccc2c(c1)N1C3=C(CCCC3)CC3CCCCC31N=2 (stereo not given)	28.2
CN(C1=C(NC(=O)c2ccc(Cl)cc2)C(=O)c2ccccc2C1=O)c1ccccc1	52.4
CC1(C)N([O-])c2cc([N+](=O)[O-])ccc2[N+]1=O	9.68
O=C1NC(=O)N(c2ccccc2)C(=O)/C1=C\C=C\c1ccccc1	42
CCOC(=O)COc1nc(-c2ccco2)cc(-c2ccco2)c1C#N	5.83
CC1C=CC=CC=CC=CC=CC=CC=CC(OC2OC(C)C(O)C(N)C2O)CC2OC(O)(CC(O)CC(O)C(O)CCC(O)CC(O)CC(=O)OC(C)C(C)C1O)CC(O)C2C(=O)O (stereo not given)	0.87
O=[N+]([O-])c1cc(CN2CCOCC2)c2cccnc2c1O	4.07
COc1ccc(NS(=O)(=O)c2cccc(C(=O)NNC(=O)c3cccn3C)c2)cc1	12.7
O=C(CSc1nnnn1-c1ccccc1)Nc1ncc2c(n1)CC(c1ccco1)CC2=O (stereo not given)	12.6
O=c1oc2c(O)c(O)cc3c(=O)oc4c(O)c(O)cc1c4c23	0.45
Cc1[nH]c2ccccc2c1Cc1nnc(SCc2ccccc2)o1	70.8
COc1ccc(CN2C(=O)NC(=O)/C(=C/c3ccc([N+](=O)[O-])o3)C2=O)cc1	4.49
N#Cc1ccccc1CN1C(=O)S/C(=C/c2cccn2-c2cccc(C(=O)O)c2)C1=O	18.5
CCOC(=O)c1ccc(CC(=O)c2ccc(O)c(O)c2O)o1	11.5
CCOC(=O)C1CCN(C(=O)Nc2ccc3nc(-c4ccco4)c(-c4ccco4)nc3c2)CC1	< 0.432
COC(=O)COc1ccc(S(=O)(=O)Nc2cc(OC)ccc2OC)cc1	5.05
N/C(=N\N=C/c1ccc(-c2ccc(O)c(C(=O)O)c2)o1)N[N+](=O)[O-]	15.2
Oc1ccc(/C=N/NP(=S)(c2ccccc2)c2ccccc2)c(O)c1O	17.6
